Assay results from PubChem BioAssay (NCI).
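Cells were grown in 96-well plates and exposed to each compound for 48 hours at five concentrations; endpoints were interpolated linearly between bracketing concentrations, or set to the highest concentration if not reached. The concentration for 50% growth inhibition is given as GI50. TGI: total growth inhibition.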

How the values were obtained:
Test in all cases: inhibition of tumour cell growth, NCI panel, 48 h
[1] = tested on: HOP-62 NSCLC
[2] = tested on: SR leukemia
[3] = tested on: HCT-116 colon
[4] = tested on: MALME-3M melanoma
[5] = tested on: SF-539 CNS
[6] = tested on: DU-145 prostate
[7] = tested on: SNB-19 CNS
[8] = tested on: MDA-MB-435
[9] = tested on: SK-MEL-2 melanoma
[10] = tested on: K-562 leukemia
[11] = tested on: HOP-92 NSCLC
[12] = tested on: KM12 colon
[13] = tested on: OVCAR-4 ovarian
[14] = tested on: SF-268 CNS
[15] = tested on: SK-MEL-5 melanoma
[16] = tested on: MOLT-4 leukemia
[17] = tested on: LOX IMVI melanoma
[18] = tested on: U251 CNS
[19] = tested on: CAKI-1 renal
[20] = tested on: CCRF-CEM leukemia
[21] = tested on: BT-549 breast
[22] = tested on: RXF 393 renal
[23] = tested on: RPMI-8226 leukemia
[24] = tested on: T-47D breast
[25] = tested on: OVCAR-3 ovarian
[26] = tested on: A549 NSCLC
[27] = tested on: OVCAR-5 ovarian
[28] = tested on: PC-3 prostate
[29] = tested on: SNB-75 CNS

SMILES: CC(CNC(Cc1ccccc1)c1ccccc1)NC(Cc1ccccc1)c1ccccc1 (stereo not drawn)
- GI50 [1]: 3.41 µM
- TGI [1]: 12.4 µM
- GI50 [2]: 1840 nM
- TGI [2]: 4.49 µM
- GI50 [3]: 1370 nM
- TGI [3]: 2860 nM
- GI50 [4]: 1680 nM
- TGI [4]: 3.36 µM
- GI50 [5]: 1930 nM
- TGI [5]: 3.69 µM
- GI50 [6]: 3.95 µM
- TGI [6]: 14.7 µM
- GI50 [7]: 3.19 µM
- TGI [7]: 13.5 µM
- GI50 [8]: 2100 nM
- TGI [8]: 4.99 µM
- GI50 [9]: 2180 nM
- TGI [9]: 4.28 µM
- GI50 [10]: 2480 nM
- TGI [10]: 6.41 µM
- GI50 [11]: 1830 nM
- TGI [11]: 4.09 µM
- GI50 [12]: 2360 nM
- TGI [12]: 5.85 µM
- GI50 [13]: 2590 nM
- TGI [13]: 10.6 µM
- GI50 [14]: 3.6 µM
- TGI [14]: 14.3 µM
- GI50 [15]: 1790 nM
- TGI [15]: 3.23 µM
- GI50 [16]: 2060 nM
- TGI [16]: 6.03 µM
- GI50 [17]: 1620 nM
- TGI [17]: 2980 nM
- GI50 [18]: 2590 nM
- TGI [18]: 7.37 µM
- GI50 [19]: 2160 nM
- TGI [19]: 7.45 µM
- GI50 [20]: 2740 nM
- TGI [20]: 7.84 µM
- GI50 [21]: 2010 nM
- TGI [21]: 5.16 µM
- GI50 [22]: 1660 nM
- TGI [22]: 3.19 µM
- GI50 [23]: 2230 nM
- TGI [23]: 4.88 µM
- GI50 [24]: 1960 nM
- TGI [24]: 4.95 µM
- GI50 [25]: 2070 nM
- TGI [25]: 4.56 µM
- GI50 [26]: 4.18 µM
- TGI [26]: 15 µM
- GI50 [27]: 2730 nM
- TGI [27]: 8.76 µM
- GI50 [28]: 2300 nM
- TGI [28]: 6.42 µM
- GI50 [29]: 2070 nM
- TGI [29]: 11.7 µM
